Experimental data taken from ChEMBL document CHEMBL4376839, “Structure-Based Optimization of Coumarin hA3 Adenosine Receptor Antagonists” (J Med Chem, 2020).

Columns and labels:
[1] = target: T1, Adenosine receptor A3 (Homo sapiens, UniProt P0DMS8); test: Displacement of [3H]HEMADO from human adenosine receptor A3 expressed in CHO cell membranes by radioligand competition assay
T1 sequence (P0DMS8 whole entry): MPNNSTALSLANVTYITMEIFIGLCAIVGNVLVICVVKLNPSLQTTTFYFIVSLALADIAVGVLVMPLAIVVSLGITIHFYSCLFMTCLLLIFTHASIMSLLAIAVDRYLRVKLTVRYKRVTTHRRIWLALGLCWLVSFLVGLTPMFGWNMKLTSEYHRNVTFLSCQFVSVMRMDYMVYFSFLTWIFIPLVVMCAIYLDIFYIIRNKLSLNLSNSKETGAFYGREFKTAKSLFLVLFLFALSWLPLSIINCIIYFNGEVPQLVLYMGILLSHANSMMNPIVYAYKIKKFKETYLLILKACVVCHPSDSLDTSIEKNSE

[2] = target: Adenosine receptor A2a (Homo sapiens, UniProt P29274); test: Displacement of [3H]NECA from human adenosine receptor A2A expressed in CHO cell membranes by radioligand competition assay
[3] = target: T1, Adenosine receptor A3; test: Antagonist activity at human adenosine receptor A3 expressed in CHO cells assessed as suppression of NECA-induced decrease of cAMP accumulation by Glo-sensor cAMP assay; assay type: functional, cell-based
[4] = target: T2, Adenosine receptor A2b (Homo sapiens, UniProt P29275); test: Antagonist activity at human adenosine receptor A2B expressed in CHO cells assessed as inhibition of NECA-stimulated adenylyl cyclase activity
T2 sequence (P29275 whole entry): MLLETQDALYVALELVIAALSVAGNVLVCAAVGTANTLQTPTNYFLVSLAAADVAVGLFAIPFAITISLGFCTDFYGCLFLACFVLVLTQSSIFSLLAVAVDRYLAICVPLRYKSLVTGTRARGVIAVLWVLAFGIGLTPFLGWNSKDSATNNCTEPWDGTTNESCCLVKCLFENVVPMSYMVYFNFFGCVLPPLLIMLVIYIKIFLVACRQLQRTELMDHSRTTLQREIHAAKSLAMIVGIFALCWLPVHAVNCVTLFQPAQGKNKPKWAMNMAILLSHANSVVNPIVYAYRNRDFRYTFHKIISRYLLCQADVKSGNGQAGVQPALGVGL

[5] = target: T3, Adenosine receptor A1 (Homo sapiens, UniProt P30542); test: Displacement of [3H]CCPA from human adenosine receptor A1 expressed in CHO cell membranes by radioligand competition assay
T3 sequence (P30542 whole entry): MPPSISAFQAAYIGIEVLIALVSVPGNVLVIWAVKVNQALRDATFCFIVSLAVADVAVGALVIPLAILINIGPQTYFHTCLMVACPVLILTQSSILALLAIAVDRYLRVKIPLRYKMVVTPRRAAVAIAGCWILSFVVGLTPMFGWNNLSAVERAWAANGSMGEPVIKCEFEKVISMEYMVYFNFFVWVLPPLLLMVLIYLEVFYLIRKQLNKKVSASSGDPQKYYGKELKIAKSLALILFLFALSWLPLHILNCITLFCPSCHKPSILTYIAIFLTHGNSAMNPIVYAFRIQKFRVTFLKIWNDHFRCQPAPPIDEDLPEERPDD

[6] = target: T2, Adenosine receptor A2b; test: Antagonist activity at human adenosine receptor A2B expressed in CHO cells assessed as inhibition of NECA-stimulated adenylyl cyclase activity; remark: listed apart in the source

Sequence of Adenosine receptor A2a (P29274 whole entry): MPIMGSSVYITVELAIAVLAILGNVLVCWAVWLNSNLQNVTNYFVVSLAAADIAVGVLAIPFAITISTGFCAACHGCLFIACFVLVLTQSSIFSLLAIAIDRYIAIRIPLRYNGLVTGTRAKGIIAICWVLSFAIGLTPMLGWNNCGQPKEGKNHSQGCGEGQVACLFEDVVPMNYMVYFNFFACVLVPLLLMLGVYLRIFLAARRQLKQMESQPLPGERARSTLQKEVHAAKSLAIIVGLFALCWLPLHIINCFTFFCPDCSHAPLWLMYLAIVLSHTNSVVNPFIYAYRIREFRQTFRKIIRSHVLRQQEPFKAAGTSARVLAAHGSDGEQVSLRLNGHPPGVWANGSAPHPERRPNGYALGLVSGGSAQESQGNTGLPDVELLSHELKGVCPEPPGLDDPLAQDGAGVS

Compound	Ki [1] [µM]	Ki [2] [µM]	IC50 [3] [µM]	IC50 [4] [µM]	Ki [5] [µM]	Ki [6] [µM]
COc1ccc(-c2cc3cccc(OC)c3oc2=O)cc1	5.06	> 100	25.3	> 30	> 100	> 30
CCOc1cccc2cc(-c3ccccc3)c(=O)oc12	22.5	55	–	> 30	22.1	> 30
CCOc1cccc2cc(-c3ccc(OC)cc3)c(=O)oc12	5.32	> 100	29.5	> 30	> 100	> 30
O=c1oc2c(O)cccc2cc1-c1ccccc1	5.09	42.3	–	> 30	4.62	> 30
Cc1cccc2cc(-c3cc(O)c(O)c(O)c3)c(=O)oc12	14.3	> 100	–	> 30	14.7	> 30
O=c1oc2c(O)cccc2cc1-c1ccc(O)c(O)c1	23.6	14	–	> 30	6.2	> 30
O=c1oc2c(O)c(O)ccc2cc1-c1ccc(O)c(O)c1	8.5	25.5	–	> 30	6.28	> 30
O=c1oc2c(O)c(O)ccc2cc1-c1ccccc1	3.85	12.1	–	> 30	2.4	> 30
CC(=O)Oc1cccc2cc(-c3ccccc3)c(=O)oc12	6.86	35.7	–	> 30	6.93	> 30
CC(=O)Oc1ccc(-c2cc3ccc(OC(C)=O)c(OC(C)=O)c3oc2=O)cc1OC(C)=O	23.4	> 100	–	> 30	> 100	> 30
CC(=O)COc1cccc2cc(-c3ccccc3)c(=O)oc12	7.06	16.1	–	–	10.4	> 30
CC(=O)COc1cccc2cc(-c3ccc(C)cc3)c(=O)oc12	0.634	> 100	–	–	> 100	> 30
O=c1oc2c(O)cccc2cc1-c1ccc(Br)cc1	–	> 100	–	> 30	> 100	> 30
COc1cccc2cc(-c3ccc([N+](=O)[O-])cc3)c(=O)oc12	8.02	59.1	–	> 30	> 100	> 30
CC(=O)Oc1ccc(-c2cc3cccc(OC(C)=O)c3oc2=O)cc1OC(C)=O	22	64.4	–	> 30	> 100	> 30
CCOc1cccc2cc(-c3cc(OC)c(OC)c(OC)c3)c(=O)oc12	9.05	> 100	–	> 30	> 100	> 30
Cc1ccc(-c2cc3cccc(C)c3oc2=O)cc1	16.6	> 100	–	> 30	> 100	> 30
CC(=O)Oc1ccc(-c2cc3ccc(OC(C)=O)c(OC(C)=O)c3oc2=O)cc1	6.14	> 100	–	> 30	> 100	> 30
CCOc1cccc2cc(-c3ccc([N+](=O)[O-])cc3)c(=O)oc12	> 100	> 100	–	> 30	> 100	> 30
CC(=O)COc1cccc2cc(-c3ccc(Br)cc3)c(=O)oc12	> 30	> 100	–	–	> 100	> 30
CC(=O)Oc1ccc2cc(-c3ccccc3)c(=O)oc2c1OC(C)=O	5.17	21.1	–	> 30	8.56	> 30
CCOc1cccc2cc(-c3ccc(OC)c(OC)c3)c(=O)oc12	13.7	> 100	–	> 30	> 100	> 30
O=c1oc2c(O)c(O)ccc2cc1-c1ccc(O)cc1	9.16	55.3	–	> 30	12.5	> 30
COc1ccc(-c2cc3cccc(C)c3oc2=O)cc1OC	13.6	25.9	–	> 30	> 100	> 30
Cc1cccc2cc(-c3ccc([N+](=O)[O-])cc3)c(=O)oc12	> 100	> 100	–	> 30	> 100	> 30
CCOc1cccc2cc(-c3ccc(C)cc3)c(=O)oc12	3.93	> 60	18.4	> 30	> 100	> 30
COc1cc(-c2cc3cccc(C)c3oc2=O)cc(OC)c1OC	9.82	32.9	–	> 30	> 60	> 30
CCOc1cccc2cc(-c3ccc(OC)cc3OC)c(=O)oc12	16.6	> 100	–	> 30	> 100	> 30
CCOc1cccc2cc(-c3ccc(Br)cc3)c(=O)oc12	> 100	> 100	–	> 30	> 100	> 30
Cc1cccc2cc(-c3ccccc3)c(=O)oc12	17	42.1	–	> 30	14.8	> 30
